Results from publication PMC9592870 (Molecular Diversity, 2022).
Values after ≈ are worked out from the molar mass of the structure shown.

Tested on: DR-Mtb strains
Experiment: microbe, parasite or virus in culture
Assay type: cell-based
Settings: Mycobacterium tuberculosis, read-out: MIC against all DR-Mtb strains

Structure (SMILES)	MIC [mg/L]
COC(=O)c1cc(-c2cccc(NC(=O)Nc3ccc(Cl)c(Cl)c3)c2)on1 [4t, Methyl 5-(3-(3-(3,4-dichlorophenyl)ureido)phenyl)isoxazole-3-carboxylate]	0.5 to 4 (≈ 1.23 to 9.85 µM)
COC(=O)c1cc(-c2ccc(NC(=O)Nc3ccc(Cl)c(Cl)c3)cc2)on1 [4tb, Methyl 5-(4-(3-(3,4-dichlorophenyl)ureido)phenyl)isoxazole-3-carboxylate]	1 to 4 (≈ 2.46 to 9.85 µM)
COC(=O)c1cc(-c2cccc(NC(=S)Nc3ccc(Cl)cc3)c2)on1 [5f, Methyl 5-(3-(3-(4-chlorophenyl)thioureido)phenyl)isoxazole-3-carboxylate]	0.5 to 4 (≈ 1.29 to 10.3 µM)
